In patent US9072734B2, “Quaternary ammonium salt compounds” (Teijin Pharma Limited, priority 2009, dated 2015):
Structures can show the parent of a compound that is named as a salt.

Assays:
[1] = molecular target: T1, human β2 adrenergic receptor (Homo sapiens, UniProt P07550); test: Whole-cell cAMP Flashplate assay using CHO-K1 cells stably expressing human β2 adrenergic receptor; assay type: cell-based; details: cAMP production
T1 construct: expressed in transfected cells; host or cells: CHO-K1

[2] = molecular target: T2, human M3 muscarinic receptor (Homo sapiens, UniProt P20309); test: Inhibitory effect on methacholine-induced calcium influx, FLIPR assay, CHO-K1 cells stably expressing the human M3 muscarinic receptor; assay type: cell-based; details: inhibition of calcium influx induced by methacholine
T2 construct: expressed in transfected cells; host or cells: CHO-K1
Source text: Muscarinic receptor subtypes (M1, M3 and M5 receptors), which couple to Gq proteins, activate the phospholipase C (PLC) pathway upon agonist binding to the receptor. As a result, the activated PLC hydrolyzes phosphatidyl inositol diphosphate (PIP2) to diacyl glycerol (DAG) and […] (IP3), which in turn generates calcium release from intracellular stores, i.e., endoplasmic and sarcoplasmic reticula. By utilizing FLIPR (Molecular Devices, Inc.) assay in which a calcium sensitive dye (Component A) is used that fluoresces when free calcium binds, the increase in intracellular calcium is measured on the basis of the change in the fluorescence intensity.
Methacholine was added to CHO-K1 cells stably expressing the human M3 muscarinic receptor to induce calcium influx and evaluate the inhibitory effect of test compounds. In the experiment, a FLIPR Calcium assay kit (Molecular Devices, Inc.) was used.
CHO-K1 cells stably expressing the human M3 muscarinic receptor suspended in Ham's F-12 media (Invitrogen, Co.) containing 10% fetal bovine serum (FBS) were seeded into 96-well FLIPR plates at a volume of 100 μL/well. Next day, 60 μL/well of Non-wash-dye solution (Hank's buffered salt solution, HBSS, containing 20 mM HEPES and 6.5 mM probenecid) was added to the cells, which were then incubated for an hour at 37° C. in the presence of 5% carbon dioxide. 20 μL of 10 concentrations of test compound solutions (HBSS containing 1% DMSO, 20 mM HEPES, 2.5 mM probenecid and 0.05% bovine serum albumin, BSA) prepared at concentrations in a range of 0.01-1000 nM with 2-fold serial dilution) were added, followed by incubation for 180 seconds. Then, 20 μL of 30 nM methacholine solution (HBSS containing 20 mM HEPES, 2.5 mM probenecid and 0.05% bovine serum albumin, BSA) was added, and fluorescence intensity was traced by the intracellular calcium influx measuring device FLIPR 96 (Molecular Devices, Inc.) for 170 seconds. The difference between the lowest and the highest values of the fluorescence intensity (FI) over the period of the measurement was used as a measured value. The percentages of inhibition by the test compounds were calculated according to the following formula from the measured value of the methacholin-added and test compound non-added sample (FIpositive), the measured value of the methacholin non-added and test compound non-added sample (FInegative), and the measured value of the methacholin-added and test compound-added sample (FItest). (%) Percentage of inhibition by test compound=[(1−(FItest−FInegative)/(FIpositive−FInegative)]×100
The 50% inhibitory concentrations (IC50 values) of test compounds were analyzed by a four-parameter logistic model using XLfit4 (IDBS, Ltd.) for the percentage of the inhibition by different concentrations of test compounds.

T1 sequence (P07550 whole entry): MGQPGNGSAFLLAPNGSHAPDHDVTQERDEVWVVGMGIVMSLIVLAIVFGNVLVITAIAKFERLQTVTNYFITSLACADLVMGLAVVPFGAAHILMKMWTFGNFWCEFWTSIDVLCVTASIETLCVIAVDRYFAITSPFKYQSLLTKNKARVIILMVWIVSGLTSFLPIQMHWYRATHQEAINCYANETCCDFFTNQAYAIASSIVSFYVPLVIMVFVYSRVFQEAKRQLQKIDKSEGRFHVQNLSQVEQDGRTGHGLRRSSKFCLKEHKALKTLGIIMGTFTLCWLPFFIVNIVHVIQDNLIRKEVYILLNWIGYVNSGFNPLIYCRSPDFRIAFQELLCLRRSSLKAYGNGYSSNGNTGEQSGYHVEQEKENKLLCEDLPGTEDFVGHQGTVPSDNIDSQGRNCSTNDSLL
T2 sequence (P20309 whole entry): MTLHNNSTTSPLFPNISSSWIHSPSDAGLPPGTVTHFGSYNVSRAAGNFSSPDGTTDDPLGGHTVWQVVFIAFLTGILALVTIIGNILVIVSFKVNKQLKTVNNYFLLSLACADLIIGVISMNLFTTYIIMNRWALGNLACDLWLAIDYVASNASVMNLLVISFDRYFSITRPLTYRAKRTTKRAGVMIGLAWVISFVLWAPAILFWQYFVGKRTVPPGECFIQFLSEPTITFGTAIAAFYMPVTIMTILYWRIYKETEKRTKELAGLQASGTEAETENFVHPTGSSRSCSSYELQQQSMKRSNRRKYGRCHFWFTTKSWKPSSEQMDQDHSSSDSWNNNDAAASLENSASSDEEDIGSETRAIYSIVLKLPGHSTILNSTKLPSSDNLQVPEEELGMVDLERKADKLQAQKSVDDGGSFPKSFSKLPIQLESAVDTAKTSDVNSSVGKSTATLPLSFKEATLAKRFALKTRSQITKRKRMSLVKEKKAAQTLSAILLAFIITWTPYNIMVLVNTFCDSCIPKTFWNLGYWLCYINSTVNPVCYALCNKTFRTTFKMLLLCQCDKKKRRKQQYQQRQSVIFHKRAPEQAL

SMILES	EC50 [1]	IC50 [2]
C[N+]1(C)CCC(OC(=O)Nc2cc(CCCC(=O)Nc3ccc(CNC[C@H](O)c4ccc(O)c5[nH]c(=O)ccc45)c(Cl)c3)ccc2-c2ccccc2)CC1 [Example 29, 4-({[5-(3-{[3-chloro-4-({[(2R)-2-hydroxy-2-(8-hydroxy-2-oxo-1,2-dihydroquinolin-5-yl)ethyl]amino}methyl)phenyl]carbamoyl}propyl)-2-phenylphenyl]carbamoyl}oxy)-1,1-dimethylpiperidin-1-ium trifluoroacetate]	4.8 nM	13.6 nM
COc1cc(CNC[C@H](O)c2ccc(O)c3[nH]c(=O)ccc23)ccc1NC(=O)CCc1ccc(-c2ccccc2)c(NC(=O)O[C@@H]2C[C@@H]3[C@H]4O[C@H]4[C@H](C2)[N+]3(C)C)c1 [Example 41, (1R,2R,4S,5S,7S)-7-({[5-(2-{[4-({[(2R)-2-hydroxy-2-(8-hydroxy-2-oxo-1,2-dihydroquinolin-5-yl)ethyl]amino}methyl)-2-methoxyphenyl]carbamoyl}ethyl)-2-phenylphenyl]carbamoyl}oxy)-9,9-dimethyl-3-oxa-9-azatricyclo[3.3.1.0^2,4]nonan-9-ium trifluoroacetate]	6.2 nM	12.9 nM
CCOc1cc(NC(=O)CCCc2ccc(-c3ccccc3)c(NC(=O)OC3CC[N+](C)(C)CC3)c2)c(Cl)cc1CNC[C@H](O)c1ccc(O)c2[nH]c(=O)ccc12 [Example 26, 4-({[5-(3-{[2-chloro-5-ethoxy-4-({[(2R)-2-hydroxy-2-(8-hydroxy-2-oxo-1,2-dihydroquinolin-5-yl)ethyl]amino}methyl)phenyl]carbamoyl}propyl)-2-phenylphenyl]carbamoyl}oxy)-1,1-dimethylpiperidin-1-ium trifluoroacetate]	0.9 nM	23.2 nM
COc1cc(CNC[C@H](O)c2ccc(O)c3[nH]c(=O)ccc23)ccc1NC(=O)CCc1ccc(-c2ccccc2)c(NC(=O)OC2CC[N+](C)(C)CC2)c1 [Example 10, 4-({[5-(2-{[4-({[(2R)-2-hydroxy-2-(8-hydroxy-2-oxo-1,2-dihydroquinolin-5-yl)ethyl]amino}methyl)-2-methoxyphenyl]carbamoyl}ethyl)-2-phenylphenyl]carbamoyl}oxy)-1,1-dimethylpiperidin-1-ium trifluoroacetate]	3.9 nM	10.5 nM
COc1cc(CNC[C@H](O)c2ccc(O)c3[nH]c(=O)ccc23)ccc1NC(=O)CCCc1ccc(-c2ccccc2)c(NC(=O)OC2CC[N+](C)(C)CC2)c1 [Example 21, 4-({[5-(3-{[4-({[(2R)-2-hydroxy-2-(8-hydroxy-2-oxo-1,2-dihydroquinolin-5-yl)ethyl]amino}methyl)-2-methoxyphenyl]carbamoyl}propyl)-2-phenylphenyl]carbamoyl}oxy)-1,1-dimethylpiperidin-1-ium trifluoroacetate]	3.8 nM	16.8 nM
C[N+]1(C)CCC(OC(=O)Nc2cc(CCC(=O)Nc3ccc(CNC[C@H](O)c4ccc(O)c5[nH]c(=O)ccc45)cc3F)ccc2-c2ccccc2)CC1 [Example 4, 4-({[5-(2-{[2-fluoro-4-({[2R)-2-hydroxy-2-(8-hydroxy-2-oxo-1,2-dihydroquinolin-5-yl)ethyl]amino}methyl)phenyl]carbamoyl}ethyl)-2-phenylphenyl]carbamoyl}oxy)-1,1-dimethylpiperidin-1-ium trifluoroacetate]	4.1 nM	4.9 nM
Cc1cc(CNC[C@H](O)c2ccc(O)c3[nH]c(=O)ccc23)ccc1NC(=O)CCCc1ccc(-c2ccccc2)c(NC(=O)OC2CC[N+](C)(C)CC2)c1 [Example 22, 4-({[5-(3-{[4-({[(2R)-2-hydroxy-2-(8-hydroxy-2-oxo-1,2-dihydroquinolin-5-yl)ethyl]amino}methyl)-2-methylphenyl]carbamoyl}propyl)-2-phenylphenyl]carbamoyl}oxy)-1,1-dimethylpiperidin-1-ium trifluoroacetate]	2.2 nM	15.8 nM
C[N+]1(C)CCC(OC(=O)Nc2cc(CCCC(=O)Nc3ccc4cc(CNC[C@H](O)c5ccc(O)c6[nH]c(=O)ccc56)ccc4c3)ccc2-c2ccccc2)CC1 [Example 23, 4-({[5-(3-{[6-({[(2R)-2-hydroxy-2-(8-hydroxy-2-oxo-1,2-dihydroquinolin-5-yl)ethyl]amino}methyl)naphthalen-2-yl]carbamoyl}propyl)-2-phenylphenyl]carbamoyl}oxy)-1,1-dimethylpiperidin-1-ium trifluoroacetate]	2.6 nM	34.3 nM

Further lines, results first:

EC50 [1]	IC50 [2]	SMILES
1.5 nM	51.3 nM	C[N+]1(C)CCC(OC(=O)Nc2cc(CCC(=O)Nc3ccc(CCCNC[C@H](O)c4ccc(O)c5[nH]c(=O)ccc45)cc3)ccc2-c2ccccc2)CC1 [Example 62, 4-({[5-(2-{[4-(3-{[(2R)-2-hydroxy-2-(8-hydroxy-2-oxo-1,2-dihydroquinolin-5-yl)ethyl]amino}propyl)phenyl]carbamoyl}ethyl)-2-phenylphenyl]carbamoyl}oxy)-1,1-dimethylpiperidin-1-ium trifluoroacetate]
4.1 nM	26.5 nM	C[N+]1(C)[C@@H]2CC(OC(=O)Nc3cc(CCC(=O)Nc4ccc(CNC[C@H](O)c5ccc(O)c6[nH]c(=O)ccc56)c(Cl)c4)ccc3-c3ccccc3)C[C@H]1[C@@H]1O[C@@H]12 (stereo partly drawn) [Example 45, (1R,2R,4S,5S,7S)-7-({[5-(2-{[3-chloro-4-({[(2R)-2-hydroxy-2-(8-hydroxy-2-oxo-1,2-dihydroquinolin-5-yl)ethyl]amino}methyl)phenyl]carbamoyl}ethyl)-2-phenylphenyl]carbamoyl}oxy)-9,9-dimethyl-3-oxa-9-azatricyclo[3.3.1.0^2,4]nonan-9-ium trifluoroacetate]
0.2 nM	38.9 nM	C[N+]1(C)[C@@H]2C[C@@H](OC(=O)Nc3ccc(CCCC(=O)Nc4ccc(CNC[C@H](O)c5ccc(O)c6[nH]c(=O)ccc56)cc4Cl)cc3-c3ccccc3)C[C@H]1[C@@H]1O[C@@H]12 [Example 71, (1R,2R,4S,5S,7S)-7-({[4-(3-{[2-chloro-4-({[(2R)-2-hydroxy-2-(8-hydroxy-2-oxo-1,2-dihydroquinolin-5-yl)ethyl]amino}methyl)phenyl]carbamoyl}propyl)-2-phenylphenyl]carbamoyl}oxy)-9,9-dimethyl-3-oxa-9-azatricyclo[3.3.1.0^2,4]nonan-9-ium trifluoroacetate]
0.6 nM	53.7 nM	C[N+]1(C)[C@@H]2CC(OC(=O)Nc3ccc(CCCC(=O)Nc4ccc(CNC[C@H](O)c5ccc(O)c6[nH]c(=O)ccc56)cc4)cc3-c3ccccc3)C[C@H]1[C@@H]1O[C@@H]12 (stereo partly drawn) [Example 53, (1R,2R,4S,5S,7S)-7-({[4-(3-{[4-({[(2R)-2-hydroxy-2-(8-hydroxy-2-oxo-1,2-dihydroquinolin-5-yl)ethyl]amino}methyl)phenyl]carbamoyl}propyl)-2-phenylphenyl]carbamoyl}oxy)-9,9-dimethyl-3-oxa-9-azatricyclo[3.3.1.0^2,4]nonan-9-ium trifluoroacetate]
2.4 nM	29.9 nM	C[N+]1(C)CCC(OC(=O)Nc2cc(CCNC(=O)c3ccc(CNC[C@H](O)c4ccc(O)c5[nH]c(=O)ccc45)cc3)ccc2-c2ccccc2)CC1 [Example 80, 4-({[5-(2-{[4-({[(2R)-2-hydroxy-2-(8-hydroxy-2-oxo-1,2-dihydroquinolin-5-yl)ethyl]amino}methyl)phenyl]formamide}ethyl)-2-phenylphenyl]carbamoyl}oxy)-1,1-dimethylpiperidin-1-ium trifluoro acetate]
